Reference: PMC6839502 (Journal of Alzheimer's Disease, 2019)
Like-named read-outs stand apart in the source and are kept apart here.

Tests used:
[1] = system: BACE1 over BACE2; conditions: cited from earlier work
[2] = cited from earlier work
[3] = system: fur, hair and skin pigmentation; conditions: cited from earlier work; for Fur and skin pigmentation: mice, rats, or dogs following chronic dosing regimens
[4] = Safety and tolerability in study B8271007; type: in vivo, human; conditions: single oral dose of 2 mg midazolam alone (period 1)
[5] = system: CSF Aβ; conditions: cited from earlier work; for Reduction of CSF Aβ40: healthy adults and older subjects combined; for Reduction in CSF Aβ: healthy older subjects; for Average reduction of steady state CSF Aβ40: mild-to-moderate AD patients
[6] = system: BACE1 over CatD; conditions: cited from earlier work

## C[C@@]1(c2nc(NC(=O)c3ncc(C(F)(F)F)cc3Cl)ccc2F)CO[C@@](C)(C(F)(F)F)C(N)=N1 [CNP520]
[1]
  Selectivity for BACE1 over BACE2 in vitro: 3 fold
[2]
  Liver toxicity in clinical studies: liver toxicity was not reported
[3]; long-term treatment in mice or dogs
  Hair depigmentation: did not result in any hair depigmentation

## Cc1ncc2n1-c1ccc(Cl)cc1C(c1ccccc1F)=NC2 [midazolam, reference compound]
[4]
  TEAEs deemed treatment related: none
  TEAEs reported: three

## Cc1cc(C#N)cnc1C(=O)Nc1ccc(F)c([C@]2(C)CO[C@@](C)(C(F)(F)F)C(N)=N2)c1 [NB-360]
[3]
  Fur and skin pigmentation: fur and skin pigment loss

## C[C@@]1(c2cc(NC(=O)c3ccc(C#N)cn3)ccc2F)C=CSC(N)=N1 [JNJ-54861911]
[5]; 5 mg QD
  Reduction of CSF Aβ40: approximately 50%
[5]; 25 mg QD
  Reduction of CSF Aβ40: ~80%
[2]; Phase II and Phase IIb/III studies
  Liver toxicity in clinical studies: concerns over abnormal liver enzymes leading to the termination

## CC#Cc1cncc(-c2ccc3c(c2)[C@@]2(N=C(C)C(N)=N2)[C@]2(CC[C@H](OC)CC2)C3)c1 [AZD3293]
[5]; 15 mg QD
  Reduction in CSF Aβ: approximately 51%
[5]; 50 mg QD
  Reduction in CSF Aβ: ~76%
[2]
  Liver toxicity in clinical studies: liver toxicity was not reported
[3]; animal studies
  Hair depigmentation: hair depigmentation
[3]
  Fur and skin pigmentation: fur and skin pigment loss
[6]
  Selectivity for BACE1 over CatD: good selectivity

## CN1C(=N)N[C@](C)(c2cc(NC(=O)c3ccc(F)cn3)ccc2F)CS1(=O)=O [MK-8931]
[5]; 12 mg QD
  Average reduction of steady state CSF Aβ40: 57%
[5]; 40 mg QD
  Average reduction of steady state CSF Aβ40: 79%
[2]
  Liver toxicity in clinical studies: liver toxicity was not reported
[3]; animal studies
  Hair depigmentation: hair depigmentation

## NC1=N[C@@]2(c3cc(NC(=O)c4ccc(F)cn4)ccc3F)COC[C@H]2CS1 [LY2886721]
[2]; Phase II study
  Liver toxicity in clinical studies: concerns over abnormal liver enzymes leading to the termination
